Patent US20210369846A1 (priority 2018, published 2021)
Where “and” joins values, the source holds several entries; their conditions need not be identical. Equal entries are not always repeated. Entries after “also recorded” stand apart in the source; their conditions may differ.

What was measured:
male Sprague Dawley rats = experiment: Red blood cells substitute in vivo test: gradual bleeding with compensation in rats under general anaesthesia; set-up: species or system rat; settings: for Amount of 5-min intervals (duration until cardiac cessation, per rat): exchange of 5% of blood volume per interval; for Amount of 5-min intervals (duration until cardiac cessation, per rat) / Amount of 5-min intervals expressed in min (per rat): individual rats; for Systolic blood pressure was >40 mm Hg for: tail cuff; for pH maintained at 7.3 up to: venous blood; for Hematocrit at the end of the experiment: gradual decrease from physiological values
Description: The study protocol was approved by the Local Ethical Committee (No. WAW2/057/2018), Warsaw University of Life Sciences, Warsaw, Poland. Study was carried out by the Department of Large Animal Diseases with the Clinic of the Faculty of Veterinary Medicine of the Warsaw University of Life Sciences in Warsaw. The study involved male Sprague Dawley rats (n=19; weight, 400±20 g; age, 8 to 12 weeks) obtained from the Mossakowski Medical Research Centre, Polish Academy of Sciences (Warsaw, Poland) divided into 4 non-equal groups (table below). The animals were kept in accordance with national animal welfare guidelines.
12 h before the experiment, feedstuffs were removed from animals' cages without restrictions to the water. Animals were weighted for circulating blood volume calculation according to Lee and Blaufox (1985) and anesthetized by intramuscular injection of the mixture of Ceptor—0.1 mL (Scanvet), Butomidor—0.1 mL (Richter Pharma AG) and Bioketan—0.1 mL (Vetoquinol). Within 2 min after injection, animals were placed in the dorsal position, on Thermo-Controlled Surgery Platform (Braintree Scientific, USA) and the catheter for blood collection was implanted.
A silicone catheter (Scientific Commodities INC, USA) was inserted into the left common jugular vein towards the heart and fastened with a tie (non-absorbable twisted strand, 4-0) for best fluid delivery and blood sampling. The catheter was kept filled with Ringer's fluid between the blood removals. The catheter's patency was maintained without the use of anti-clotting agents. The skin was not stitched, a swab moistened with saline solution was applied to the wound. Then the rats were transferred to a GN 1/1 electric heating plate (temp. 37±1° C., Bartscher, Poland), where a cuff was applied to the rat's tail to measure bloodless tail blood pressure (MLT125R, ADI, Australia), connected to the system NIBP (Non-Invasive Blood Pressure, ADI, Australia) and eight-channel PowerLab (ADI, Australia) and PC. Throughout the experiment, pulse and blood pressure were recorded in the Chart program (ADI, Australia). During the entire experiment, systolic and mean arterial blood readings were taken up to a blood pressure systolic threshold reading of 40 mm Hg between blood collections.
A total of 4 experiment variants were performed, as in the table above, using the method of gradual bleeding with compensation described in the previous experiment (5% of circulating blood). Compensations were used in subsequent experiments: Voluven fluid (Hydroxyethyl starch (HES 130/0.4), dextran 130 kDa, Fresenius Kabi) and formulations 2j3c, 2j3e and 2l3e (NanoSanguis) administered in Voluven fluid (concentration 0.5% w/v).
In venous blood samples, blood gas determinations (Siemens EPOC gasometer) were performed: pH, pCO2 (CO2 pressure, mm Hg), pO2 (oxygen pressure, mm Hg), cHCO3-(bicarbonate ion concentration, mmol/L), BE (ecf) (deficiency in blood buffering bases, mmol/L), hematocrit (Hct, %, less precise measurement than in a morphology analyzer), glucose (mg/dL), lactate (Lac, mmol/L), creatinine (Crea, mg/dL) followed by morphology (Mindray analyzer): hematocrit (hct, %), hemoglobin (g/L), red blood cell count (RBC, 10^12/L), white blood cell count (WBC, ×10^9/L) and platelet count (PLT, ×10^9/L). […] The results are given in the attached Excel spreadsheet. Blood for other biochemical analyses was centrifuged and frozen (−20° C.). Collected organ (liver, kidney, lung and heart) samples were fixed in buffered formalin, and after 48 hours. transferred to 70% ethyl alcohol and stored for histological examination. Histological examination was performed after routine staining of the hematoxylin and eosin sections.

[1] = system: HMEC-1 human vascular endothelial cells

Structure (SMILES) | Survival of rats higher compared to the control group receiving Voluven (male Sprague Dawley rats; 0.5% w/v in Voluven) | Amount of 5-min intervals (duration until cardiac cessation, per rat) (male Sprague Dawley rats; 0.5% w/v in Voluven) | Amount of 5-min intervals expressed in min (per rat) (male Sprague Dawley rats; 0.5% w/v in Voluven) | Systolic blood pressure was >40 mm Hg for (male Sprague Dawley rats; 0.5% w/v in Voluven) | pH maintained at 7.3 up to (male Sprague Dawley rats; 0.5% w/v in Voluven) | Change caused slower in comparison to the control group (male Sprague Dawley rats; control: Voluven) | Maximum Non-Hemolytic Concentration (blood) | Maximum Non-Cytotoxic Concentration HMEC-1 [1] | Maximum Non-Cytotoxic Concentration L929 (L929 mouse fibroblasts) | Lactate concentration above physiological values (limit 8.5 mmol/L) occurred at intervals (male Sprague Dawley rats; 0.5% w/v in Voluven) | RBC at the end of the experiment (male Sprague Dawley rats; 0.5% w/v in Voluven) | WBC at the end of the experiment (male Sprague Dawley rats; 0.5% w/v in Voluven) | Hematocrit at the end of the experiment (male Sprague Dawley rats; 0.5% w/v in Voluven) | Buffer balance deficiency (Be (ecf)) occurred at (male Sprague Dawley rats; 0.5% w/v in Voluven) | Maintaining systolic pressure above the limit, comparing to other test groups (male Sprague Dawley rats; limit 40 mm Hg)
O=C(O)CCCC(=O)OCCC(F)(F)C(F)(F)C(F)(F)C(F)(F)C(F)(F)C(F)(F)C(F)(F)C(F)(F)F [2l3e] | 10 intervals | 10 5-min intervals and 13 5-min intervals and 21 5-min intervals and 28 5-min intervals and 31 5-min intervals | 155 min and 60 min and 75 min and 105 min and 140 min | 18-22 intervals | 20-21 intervals | pH decrease; also recorded: increase in pCO2; also recorded: decrease in buffer base deficiency; also recorded: increase of lactate and creatinine | >2.00% | >2.00% | >2.00% |  |  |  |  |  | 
O=C(O)CCC(=O)OCCC(F)(F)C(F)(F)C(F)(F)C(F)(F)C(F)(F)C(F)(F)C(F)(F)C(F)(F)F [2j3c] | 7 intervals | 24 5-min intervals and 23 5-min intervals and 18 5-min intervals (2×) and 11 5-min intervals | 55 min and 120 min and 115 min and 90 min (2×) | 12 intervals and 20 intervals | 13 intervals and 17 intervals |  | >2.00% | 0.5% | 0.25% | 15 intervals and 19 intervals | ~2e+12 L⁻¹ | ~1e+09 L⁻¹ | about 9% |  | 
O=C(O)CCC(=O)OCCC(F)(F)C(F)(F)C(F)(F)C(F)(F)C(F)(F)C(F)(F)C(F)(F)C(F)(F)F [2j3e] | 8 intervals | 15 5-min intervals and 17 5-min intervals and 21 5-min intervals and 25 5-min intervals and 29 5-min intervals | 145 min and 75 min and 85 min and 105 min and 125 min |  | 13 intervals and 20 intervals |  | 1% | 0.5% | 0.5% | 13-19 intervals |  |  | about 5% | 14-19 intervals | longer
